# Measured values taken from article PMC7170889, “Synthesis and evaluation of designed PKC modulators for enhanced cancer immunotherapy” (Nature Communications, 2020).
# Tested on: PKC
# Experiment: PKC competitive binding assay, isoform not specified
# Set-up: species or system human
# Conditions: conventional and novel PKC isoforms
# Method: With a panel of compounds bearing diverse functionality at C13, we began to explore how these modifications affect PKC binding and biological function. Because an obvious prerequisite for PKC pathway involvement is binding to PKC, compounds were initially evaluated for PKC affinity in a cell-free competitive binding assay with tritiated phorbol dibutyrate ([^3H]-PDBu). Assays were performed with representative members of both the conventional (PKCα) and novel (PKCδ) PKC families. Subsequently, compounds were assayed for PKC isoform translocation in real time in living cells using an optical assay. Translocation to the plasma membrane is the hallmark of PKC activation[18],[57],[60] and therefore monitoring the subcellular localization of a PKCδ-GFP fusion protein via confocal microscopy offers a convenient method for determining whether a compound enters a cell and engages its PKC isoform target. Finally and of clinical significance, we also determined the effect of compounds on CD22 surface expression in vitro in NALM6 cells, an ALL cell line previously studied in connection with CD22-targeted CAR T cell therapy, and two additional lymphoma cell lines[11],[31],[65].
# PKC Binding Assay Protocol […]
# competition with 3H-phorbol-12,13-dibutyrate (3H-PDBu) as described below. This procedure entails a glass-fiber filtration method to determine bound radioligand.
# Preparation of PKC binding assay buffer
# To a 50 mL polypropylene tube was added Tris-HCl (pH 7.4, 1 M, 1 mL), KCl (1 M, 2 mL), CaCl2 (0.1 M, 30 μL), and bovine serum albumin (BSA, 40 mg, Sigma-Aldrich). This mixture was diluted to 20 mL with deionized H2O and mixed gently. The buffer was stored on ice until use. The final […]
# Supplementary Table1. PKC binding assay buffer composition.
# Preparation of phosphatidylserine (PS) vesicles
# For every two assays, 3.5 mg phosphatidylserine (Avanti Polar Lipids, porcine, 25 mg/mL CHCl3 solution) was concentrated by removing chloroform under a stream of nitrogen followed by reduced pressure. The solid PS was suspended as vesicles in freshly prepared PKC binding assay buffer (3.5 mL) by sonicating six times for 30 sec, with a 30 sec rest between sonications (Branson Sonifier 250, power = 2, 50% duty cycle). The resulting milky cloudy mixture (1 mg/mL) was stored […]
# Preparation of PKC isoform solution
# Assay PKC was prepared by dissolving a 4 μg aliquot of the indicated recombinant human PKC isoform (Invitrogen) into 11.6 mL of PKC binding assay buffer (this amount is sufficient for two assays). The diluted PKC was stored on ice for immediate use.
# Preparation of 3H-PDBu solution
# 3H-PDBu (American Radiolabeled Chemicals, Inc.; 1 mCi/mL acetone solution; specific activity: […]) was diluted 10-fold with DMSO. The resulting 500 nM stock solution was further diluted with DMSO to 30 nM.
# Preparation of analog compound dilutions
# Compound dilutions were prepared by serially diluting from a chosen "high" concentration by factors of 3 or 4. For each analog compound, seven concentrations were used to define the […]
# To a polypropylene tube was added 3.3 mL of 1 mg/mL PS vesicles solution, 11 mL of PKC isoform solution, and 1.1 mL of 30 nM 3H-PDBu solution were added. The resulting solution was vortexed to mix and stored on ice.
# PKC binding assay protocol
# - Glass-fiber filters (Whatman GF/B) were prepared by soaking them in a solution of […]
smiles,measurement,value
CCCCCC#CC(=O)O[C@H]1/C(=C/C(=O)OC)C[C@H]2C[C@H]([C@@H](C)O)OC(=O)C[C@H](O)C[C@@H]3C[C@H](OC(C)=O)C(C)(C)[C@](O)(C[C@@H]4C[C@H](O)C[C@H](/C=C/C(C)(C)[C@]1(O)O2)O4)O3 [SUW204],PKC binding affinity in words,single-digit nanomolar
